# Assay results from patent US12338261B2 (SUMITOMO PHARMA ONCOLOGY, INC., priority 2015, dated 2025).
# Where “and” joins values, the source holds several entries; their conditions need not be identical. Equal values may be shown once. Read-outs that look alike come from different tables or passages of the source.
# Columns and labels:
# [1] = type: in vitro ADME, mouse; conditions: mouse, plasma
# Method: (§1) The plasma stability of compound IB′ was determined using plasma from four species. Results for mouse, rat, dog and human are shown in Tables 5, 6, 7 and 8 respectively. Alvocidib and flumazenil were used as controls. In mouse, rat and human plasma, compound IB′ maintained 100% stability after 5 hour incubation. In dog plasma, approximately 90% of compound IB′ remained after 5 hours.
# [2] = CD-1, mouse, in vivo
# physchem = conditions: kinetic from dmso stock
# Dog plasma stability = type: in vitro ADME; conditions: dog plasma
# Method: as §1
# Human plasma stability = type: in vitro ADME; conditions: human plasma
# Method: The plasma stability of compound IB′ was determined using plasma from four species.
# [3] = for MTDacute: female SHO SCID mice; for Body weight loss, peak: surviving mice
# Method: Acute studies were performed in female SHO SCID mice using three animals per treatment group. […] Body weight measurements following oral dosing (FIGS. 2A-B) and intravenous (IV) dosing (FIG. 2C-D) were used, along with mortality and clinical observations to determine the maximum tolerated acute dose (MTDacute).
# [4] = type: in vitro ADME, rat; conditions: rat, plasma
# Method: as §1
# [5] = Pharmacokinetics in Sprague Dawley rats; type: in vivo, rat; conditions: SD rats; for concentration at 0.5 h: 0.50 hr
# Method: Plasma samples were taken at 8 time-points (IV) or 7 time points (oral) over a 24 hour period following a single dose of compound IB′ (3 animals per group). […] The plasma samples were also analyzed for the presence of compound IB′.
# [6] = tested on: MV4-11 mouse xenograft model of acute myeloid leukemia (AML); assay: Mouse xenograft efficacy study; type: in vivo; conditions: MV4-11 xenograft
# Method: The in vivo activity of compound IB′ was determined in a MV4-11 mouse xenograft model of acute myeloid leukemia (AML). Injection of 8×10^6 MV4-11 cells/mouse was followed by growth of tumors to approximately 100 mm^3. After tumors reached the appropriate size, mice were randomized into the following treatment groups: Vehicle, compound IB′ (7.5 mg/kg, qdx5x3), compound IB′ (2.5 mg/kg, qdx5x3), compound IB′ (0.1 mg/kg, qdx5x3) and […]. Vehicle and compound IB′ were administered orally, except in the last arm of compound IB′ (7.5 mg/kg, q7dx3), which was dosed intravenously.
# [7] = Method: Repeat dose toxicology studies were performed in female SHO SCID mice using 3 animals per treatment group. […] Body weight measurements of animals treated by oral (see FIGS. 3A-B) and intravenous (see FIG. 3C-D) dosing over the course of the 5-day repeat dosing period and subsequent 5-day observation period, along with mortality and clinical observations, were used to determine the maximum tolerated dosing schedule (MTDrepeat).
# [8] = Maximum tolerated acute dose in rats
# [9] = male, Sprague Dawley, rat, plasma, IV 1 mg/kg, read-out: Plasma concentration of compound IB′ itself
# [10] = male, Sprague Dawley, rat, plasma, PO 10 mg/kg, read-out: Plasma concentration of compound IB′ itself
# [11] = rats, single oral dose 4.5 mg/kg
# [12] = rats, single oral dose 18 mg/kg
compound,measurement,setting,value
"CN1CC[C@H](c2c(OP(=O)(O)O)cc(O)c3c(=O)cc(-c4ccccc4Cl)oc23)[C@H](O)C1 [Compound IB′, 2-(2-chlorophenyl)-5-hydroxy-8-(3-hydroxy-1-methylpiperidin-4-yl)-4-oxo-4H-chromen-7-yl dihydrogen phosphate]",% Remaining,[1]; 0 h,100.00%
same,% Remaining,[1]; 0.5 h,88.48%
same,% Remaining,[1]; 1 h,89.83%
same,% Remaining,[1]; 2 h,97.71%
same,% Remaining,[1]; 3 h,99.61%
same,% Remaining,[1]; 4 h,100.46%
same,Bioavail.,[2],182.3 ± 20.0 % F
same,solubility kinetic,"physchem; pH 2.2, aqueous buffer",> 1000 µg/mL
same,solubility,"physchem; pH 2.2, aqueous buffer, Solubility",1900 µg/mL
same,solubility kinetic,"physchem; pH 6.8, aqueous buffer",> 5000 µg/mL
same,solubility kinetic,"physchem; pH 8.7, aqueous buffer",> 5000 µg/mL
same,% Remaining,Dog plasma stability; 0 hours,100.00%
same,% Remaining,Dog plasma stability; 0.5 hours,83.66%
same,% Remaining,Dog plasma stability; 1 hour,94.53%
same,% Remaining,Dog plasma stability; 2 hours,112.61%
same,% Remaining,Dog plasma stability; 3 hours,99.16%
same,% Remaining,Dog plasma stability; 4 hours,93.91%
same,% Remaining,Human plasma stability; 0 hours,100.00%
same,% Remaining,Human plasma stability; 0.5 hours,96.32%
same,% Remaining,Human plasma stability; 1 hour,88.01%
same,% Remaining,Human plasma stability; 2 hours,104.22%
same,% Remaining,Human plasma stability; 3 hours,102.59%
same,% Remaining,Human plasma stability; 4 hours,94.36%
same,% Remaining,Human plasma stability; 5 hours,100% and 100.26%
same,MTDacute,"[3]; single dose, dosed intravenously",15 mg/kg
same,MTDacute,"[3]; single dose, dosed orally",15 mg/kg
same,"Minor body weight loss, peak","[3]; mice, 15 mg/kg intravenous dosing group, single dose",3.3%
same,clinical observations,"[3]; mice, single dose 30 mg/kg and 45 mg/kg",Body weight loss and increased lethargy were observed
same,overt toxicity,"[3]; mice, single dose orally or intravenously at 15 mg/kg or 7.5 mg/kg",No overt toxicity was observed
same,mortality,"[3]; mice, single intravenous dose 30 mg/kg",one animal died on day three
same,mortality,"[3]; mice, single intravenous dose 45 mg/kg",two animals died on day two
same,mortality,"[3]; mice, single oral dose 30 mg/kg",one animal died on day four
same,mortality,"[3]; mice, single oral dose 45 mg/kg",one animal died on day two and one animal died on day three
same,"Body weight loss, peak",[3]; single dose intravenously,12%
same,"Body weight loss, peak","[3]; single oral dose, 30 mg/kg group",17%
same,% Remaining,[4]; 0 h,100.00%
same,% Remaining,[4]; 0.5 h,97.39%
same,% Remaining,[4]; 1 h,94.60%
same,% Remaining,[4]; 2 h,100.04%
same,% Remaining,[4]; 3 h,107.48%
same,% Remaining,[4]; 4 h,100.20%
same,Plasma concentration of compound IB′ itself,"[5]; IV 1 mg/kg, 2.00 hr, 1 mg/kg",below quantitative levels and BQL
same,Plasma concentration of compound IB′ itself,"[5]; IV 1 mg/kg, 4.00 hr",BQL
same,Plasma concentration of compound IB′ itself,"[5]; IV 1 mg/kg, 6.00 hr",BQL
same,Plasma concentration of compound IB′ itself,"[5]; IV 1 mg/kg, 8.00 hr",BQL
same,Plasma concentration of compound IB′ itself,"[5]; IV 1 mg/kg, 24.00 hr",BQL
same,Plasma concentration of compound IB′ itself,"[5]; PO 10 mg/kg, 2.00 hr, 10 mg/kg",below quantitative levels and BQL
same,Plasma concentration of compound IB′ itself,"[5]; PO 10 mg/kg, 4.00 hr",BQL
same,Plasma concentration of compound IB′ itself,"[5]; PO 10 mg/kg, 6.00 hr",BQL
same,Plasma concentration of compound IB′ itself,"[5]; PO 10 mg/kg, 8.00 hr",BQL
same,Plasma concentration of compound IB′ itself,"[5]; PO 10 mg/kg, 24.00 hr",BQL
same,concentration at 0.083 h,"[5]; male, Sprague Dawley, rat, plasma, IV 1 mg/kg, 0.083 hr, read-out: Plasma concentration of compound IB′ itself",430 ng/mL
same,concentration at 0.25 h,[5]; [9],82 ng/mL
same,concentration at 0.5 h,[5]; [9],24.6 ng/mL
same,concentration at 1 h,[5]; [9],9.3 ng/mL
same,concentration at 0.25 h,[5]; [10],30 ng/mL
same,concentration at 0.5 h,[5]; [10],20.4 ng/mL
same,concentration at 1 h,[5]; [10],9.3 ng/mL
same,Tumor Growth Inhibition,"[6]; 2.5 mg/kg, qdx5x3, orally",12%
same,Tumor Growth Inhibition,"[6]; 7.5 mg/kg, q7dx3, intravenously",74%
same,Tumor Growth Inhibition,"[6]; 7.5 mg/kg, qdx5x3, orally",69%
same,MTDrepeat,"[7]; female SHO SCID mice, five daily doses, dosed intravenously",15 mg/kg
same,overt toxicity,"[7]; mice, five daily doses, orally 7.5 or 2.5 mg/kg, or any dose level intravenously",No overt toxicity was observed
same,mortality,"[7]; mice, five daily oral doses 15 mg/kg","one animal died on day 5, and one animal died on day 7"
same,"Body weight loss, peak","[7]; surviving mice, five daily oral doses 15 mg/kg",12%
same,MTDacute,"[8]; female Sprague Dawley rats, single oral dose",18 mg/kg
same,NOAEL,"[8]; female, Sprague Dawley, rat, in vivo, po",18 mg/kg
same,HCT,[8]; [11],49.9%
same,MCH,[8]; [11],19.7 pg
same,MCHC,[8]; [11],35.9 g/dL
same,MCV,[8]; [11],54.8 fL
same,PLT,[8]; [11],37.1 10^3/μL
same,RBC,[8]; [11],9.1 10^6/μL
same,RDWA,[8]; [11],16.2 fL
same,WBC,[8]; [11],17.9 10^3/μL
same,HCT,"[8]; rats, single oral dose 9 mg/kg",42.7%
same,MCH,"[8]; rats, single oral dose 9 mg/kg",19.5 pg
same,MCHC,"[8]; rats, single oral dose 9 mg/kg",36.6 g/dL
same,MCV,"[8]; rats, single oral dose 9 mg/kg",53.3 fL
same,PLT,"[8]; rats, single oral dose 9 mg/kg",35.0 10^3/μL
same,RBC,"[8]; rats, single oral dose 9 mg/kg",8.0 10^6/μL
same,RDWA,"[8]; rats, single oral dose 9 mg/kg",15.9 fL
same,WBC,"[8]; rats, single oral dose 9 mg/kg",15.6 10^3/μL
same,platelet counts versus normal range,"[8]; rats, single oral dose 9 mg/kg",outside the normal range
same,HCT,[8]; [12],31.2%
same,MCH,[8]; [12],19.6 pg
same,MCHC,[8]; [12],36.6 g/dL
same,MCV,[8]; [12],53.5 fL
same,PLT,[8]; [12],33.9 10^3/μL
same,RBC,[8]; [12],5.9 10^6/μL
same,RDWA,[8]; [12],15.7 fL
same,WBC,[8]; [12],11.4 10^3/μL
same,abnormal food consumption patterns,[8]; [12],not observed
same,red and white blood cell counts,[8]; [12],Slightly reduced
same,Body weight loss,"[8]; rats, single oral dose 36 mg/kg, preceding death",13.1%
same,overt toxicity,"[8]; rats, single oral dose 18, 9, or 4.5 mg/kg","No overt toxicity, including body weight change or diarrhea, was observed"
